# Data reported in US20240009175A9, “TETRAZOLE DERIVATIVES” (Merck Patent GmbH, priority 2020, published 2024).
# pIC50: −log10 of the molar value.
# Legend:
# [1] = tested on: CHO-K1 cells; assay: Micronucleus assay (MNT) in vitro; type: cell-based; set-up: key: A: negative, putative negative (micronuclei detected beyond threshold of 60% cyctotoxicity); B: positive; conditions: 24 hrs treatment, 0.2 μM to 100 μM
# [2] = target: human rec ACSS2 (Homo sapiens (Human), UniProt Q9NR19); assay: Biochemical activity ACSS2 assay (AMP-Glo); conditions: human recombinant ACSS2, AMP-Glo, 180 min at 37° C.
# Chain of human rec ACSS2 (Q9NR19 whole entry): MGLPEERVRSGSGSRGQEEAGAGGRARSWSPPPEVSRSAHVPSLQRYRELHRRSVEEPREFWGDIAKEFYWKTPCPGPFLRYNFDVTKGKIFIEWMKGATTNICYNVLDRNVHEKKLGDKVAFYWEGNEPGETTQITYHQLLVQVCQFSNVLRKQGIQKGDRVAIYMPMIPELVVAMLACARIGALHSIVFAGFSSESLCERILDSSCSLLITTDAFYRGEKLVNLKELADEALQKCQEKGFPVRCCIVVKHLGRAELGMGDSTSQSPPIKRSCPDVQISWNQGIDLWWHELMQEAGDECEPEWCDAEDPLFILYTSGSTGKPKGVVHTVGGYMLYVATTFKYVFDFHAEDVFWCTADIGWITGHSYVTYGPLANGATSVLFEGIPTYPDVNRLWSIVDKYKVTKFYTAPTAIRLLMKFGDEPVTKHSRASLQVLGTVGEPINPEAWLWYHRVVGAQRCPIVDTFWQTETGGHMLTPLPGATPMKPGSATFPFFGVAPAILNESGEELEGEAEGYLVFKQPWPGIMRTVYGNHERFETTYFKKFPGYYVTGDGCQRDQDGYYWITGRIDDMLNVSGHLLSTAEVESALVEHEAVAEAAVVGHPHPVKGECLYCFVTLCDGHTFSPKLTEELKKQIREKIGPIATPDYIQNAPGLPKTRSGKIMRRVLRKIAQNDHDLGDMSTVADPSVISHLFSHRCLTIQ
# Method in brief: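 1 nM C-term myc-tagged recombinant human ACSS2 with 100 μM ATP, 100 μM Coenzyme A and 500 μM acetate (final concentrations), pH 7.5, 180 min at 37° C, compound from 30 μM over 10 concentrations. Released AMP quantified by AMP-Glo luminescence; zero set with 5 μM reference ACSS2 inhibitor, IC50 derived.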
# [3] = target: ACSS2 (Homo sapiens (Human), UniProt Q9NR19); assay: Cellular assay of 14C acetate incorporation into fatty acids (IC50 ACSS2 cellular lipids); type: cell-based; conditions: HCT-15 cells
# Chain of ACSS2 (Q9NR19 whole entry): as above
# Protocol: Cellular Assay of ^14C Acetate Incorporation into Fatty Acids (IC50 ACSS2 Cellular Lipids)
# This protocol describes a cellular assay capable to quantify endogenous fatty acid synthesis activity in the human HCT-15 cancer cell line following the incorporation of extracellularly administered radiolabeled ^14C acetate with a scintillation proximity based read out on extracted fatty acids.
# HCT-15 cells were grown in RPMI 1640 (Gibco) supplemented with 2 mM glutamine, 1 mM sodium pyruvate 10 mM HEPES and 10% FCS (heat-inactivated) passaged every 2-3 days to remain a subconfluent, vital culture. A working cell bank was prepared with each aliquot containing 1×10^7 viable cells. After thawing, these cells are dilute immediately 1:20 in pre-warmed (37° C.) culture medium. Cells are collected by centrifugation at 200×g for 5 min, and the supernatant is replaced by 30 mL of fresh culture medium per aliquot to obtain a cell suspension containing 350000 cells/ml. From this cell suspension 100 μL are dispersed into each well of a collagen coated 96 well plate, (black, clear bottom, PS, F-bottom, Greiner) and culture for 24 h (37° C., 5% CO2). After incubation the culture medium is removed and the wells are washed once with 100 μL PBS++(supplemented with Mg^2+/Ca^2+, Gibco) and 50 μL assay medium (RPMI 1640+10 mM HEPES) are added to each well. Compounds serial dilutions are prepared from 10 mM stock solutions in DMSO using a fixed dilution factor (usually 1:3). After preparation of the dilution series in DMSO, the individual dilutions are further diluted in the assay medium. This working dilution is prepared such, that the concentration is 7× of the final concentration in the assay. The maximal DMSO concentration in the final assay is 0.1%.
# To each well 10 μL compound working dilution or DMSO blank are added and the cells are cultured for 2 h (37° C., 5% CO2). Then 10 μL AlamarBlue reagent (Invitrogen) containing 14 μCi/mL 14C-acetate (Perkin Elmer) are added to each well (70 μl total volume) and cells are again cultured for 2 h. Cell viability is verified by measuring the AlamarBlue fluorescence (Tecan Safire, ex: 544 nm/em: 590 nm). After incubation the culture medium is removed and the wells are carefully washed once with cold 100 μL PBS++. For cell lysis and fatty acid recovery 50 μl 0.1 M NaOH and 0.1% Triton-X100 are added per well. The plate is sealed with PlateLoc (clear peelable heat seal, Agilent) and incubate at 70° C. for 16-24 h. After cooling to room temperature, the plates are centrifuged for 1 min at 1000 rpm and the plate seals are removed. For acidification 150 μL 0.1 M HCl are added to each well, mixed and 150 μL of the mixture are transferred into a 96 well FlashPlate (Perkin Elmer). The plates are sealed with TopSeal-A (Perkin Elmer). To allow for the fatty acid binding to the well surfaces the plates are incubate for 4 h at 70° C. After cooling to room temperature, the plates are centrifuged for 1 min at 1000 rpm and stored for 0.5-2h at room temperature in the dark. Radioactivity from ^14C incorporation into fatty acids in the wells is measured as CPM count in a MicroBeta scintillation counter (Perkin Elmer).
SMILES,MNT [1],pIC50 [2],pIC50 [3]
"CCn1c(C(O)(c2ccccc2)c2ccccc2)nc2ncc(-c3nnn[nH]3)cc21 [Compound 60, [1-ethyl-6-(1H-1,2,3,4-tetrazol-5-yl)-1H-imidazo[4,5-b]pyridin-2-yl]diphenylmethanol]",A,7.00 to 8.00,5.00 to 7.00
"CCn1c(C(O)(c2ccccc2)c2ccccc2)nc2nc(C)c(-c3nnn[nH]3)cc21 [Compound 62, [1-ethyl-5-methyl-6-(1H-1,2,3,4-tetrazol-5-yl)-1H-imidazo[4,5-b]pyridin-2-yl]diphenylmethanol]",A,8.00 to 9.00,5.00 to 7.00
"CCn1c(C(O)(c2ccccc2)c2ccccc2)nc2ccc(C(=O)NC[C@@H](C)O)cc21 [Reference Compound, 3-Ethyl-2-[hydroxy(diphenyl)methyl]-N-[(2R)-2-hydroxypropyl]benzimidazole-5-carboxamide, reference compound]",B,5.00 to 7.00,8.00 to 9.00
